Data from paper PMC3387161, “Small Molecules Targeted to a Non-Catalytic “RVxF” Binding Site of Protein Phosphatase-1 Inhibit HIV-1” (PLoS ONE, 2012).

Legend:
recombinant PP1α = biological target: T1, recombinant PP1α (Oryctolagus cuniculus, UniProt P62139); assay: Malachite green dephosphorylation of generic KT(pT)IRR peptide by PP1α; type: biochemical; details: 1H4 300 µM, KT(pT)IRR 3 µM; control 1.4
T1 construct: purchased New England Biolabs, Ipswich, MA
Experimental: To determine whether 1H4 has an effect on the enzymatic activity of PP1, we used recombinant PP1α and a generic substrate, phosphorylated KT(pT)IRR peptide which is recognized equally well by PP1 and PP2A [13]. The KT(pT)IRR peptide (3 µM) was efficiently dephosphorylated by PP1α (Fig. 6A, V0 = 1.4 µM·min^−1). […] We further investigated the effect of 1H4 on PP1 enzymatic activity by analyzing the initial velocity versus KT(pT)IRR peptide substrate concentration plots in the absence and presence of 1H4 that were approximated by Michaelis-Menten equation (Fig. 6B) and also visualized in Lineweaver-Burk representation (Fig. 6C).
Figure 6 1H4 has no effect on PP1 enzymatic activity. […] The amount of released phosphate was quantified by the absorbance and phosphate concentration was recalculated using standards. Initial velocity was calculated by linear regression in Prism. […] The amount of released phosphate was quantified with malachite green. The VMAX and Km were calculated by non-linear regression analysis for Michaelis-Menten equation in Prism. […]
Inhibition data were analyzed using GraphPad Prism 4 software (GraphPad Software, La Jolla, CA). The IC50 values were determined from a sigmoidal dose-response (variable slope) curve using four parameter logistic equation Y = Bottom+(Top-Bottom)/([…]). […]

[1] = Trypan blue exclusion viability assay in CEM cells; type: cell-based; details: human, read-out: Cytotoxicity IC50 in CEM cells by trypan blue exclusion

T1 sequence (P62139 whole entry): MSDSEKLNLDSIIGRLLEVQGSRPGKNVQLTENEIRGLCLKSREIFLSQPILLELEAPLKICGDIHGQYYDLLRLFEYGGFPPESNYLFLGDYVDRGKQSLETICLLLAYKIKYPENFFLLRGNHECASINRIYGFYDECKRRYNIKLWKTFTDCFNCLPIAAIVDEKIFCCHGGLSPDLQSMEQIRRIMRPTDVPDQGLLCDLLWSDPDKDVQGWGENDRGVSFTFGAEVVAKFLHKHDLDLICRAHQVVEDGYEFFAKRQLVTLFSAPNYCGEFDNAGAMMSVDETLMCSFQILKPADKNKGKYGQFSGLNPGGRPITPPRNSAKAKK

## COCCNC(=O)COC(=O)c1c2c(nc3ccccc13)/C(=C/c1ccc(O)cc1)CCC2 [1H4]
Recombinant PP1α
  V0 of KT(pT)IRR peptide dephosphorylation by PP1α in presence of compound: 1.3 µM·min^-1
[1]
  IC50 at 24 h: > 100 µM
